Assays:
[1] = physchem; conditions: octanol/water, pH 7.4, logD
[2] = physchem
Description: Ionization constant (pKa)

[3] = molecular target: Beta-2 adrenergic receptor (Cavia porcellus) (UniProt Q8K4Z4)
Description: In vitro beta-2 duration was determined using electrically stimulated guinea-pig isolated trachea superfusion system

[4] = molecular target: Beta-2 adrenergic receptor (Cavia porcellus) (UniProt Q8K4Z4); conditions: Trachea
Description: Beta-2-adrenoceptor potency was determined in rings of guinea-pig isolated trachea

Sequence of Beta-2 adrenergic receptor (Cavia porcellus) (Q8K4Z4 whole entry, looked up): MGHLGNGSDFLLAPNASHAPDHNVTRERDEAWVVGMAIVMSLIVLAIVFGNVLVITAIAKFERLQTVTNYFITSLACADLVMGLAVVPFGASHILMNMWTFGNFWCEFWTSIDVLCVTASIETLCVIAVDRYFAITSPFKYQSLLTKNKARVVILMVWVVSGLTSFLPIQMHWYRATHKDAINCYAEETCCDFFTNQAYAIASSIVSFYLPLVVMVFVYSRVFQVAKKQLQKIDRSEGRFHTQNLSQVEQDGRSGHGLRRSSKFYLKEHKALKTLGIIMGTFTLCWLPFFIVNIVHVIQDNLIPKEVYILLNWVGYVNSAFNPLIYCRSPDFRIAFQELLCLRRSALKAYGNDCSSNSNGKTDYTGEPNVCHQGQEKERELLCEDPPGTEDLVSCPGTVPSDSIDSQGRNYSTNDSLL

Row | Structure (SMILES) | logD [1] | pKa [2] | Beta2 duration [3] | p[A]50 [4]
1 | O=S(=O)(CCCNCCc1ccc(O)c2nc(O)sc12)NCCSCCc1ccccc1 | 1.77 | > 8 | 180 min | –
2 | O=S(=O)(CCCCCCNCCc1ccc(O)c2nc(O)sc12)CCc1ccccc1 | 1.44 | > 8 | > 180 min | 7
3 | Cc1ccc(CCOCCCS(=O)(=O)CCNCCc2ccc(O)c3nc(O)sc23)nc1 | 1.56 | < 8 | 40 min | –
4 | CN(CCCOCCOCCc1ccccc1)CCc1ccc(O)c2nc(O)sc12 | – | > 8 | > 180 min | –
5 | NC(=O)c1ccc(CCOCCCS(=O)(=O)CCNCCc2ccc(O)c3nc(O)sc23)cc1 | 1.1 | < 8 | 50 min | 7.54
6 | O=C(CCCOCCc1ccccc1)NCCNCCc1ccc(O)c2nc(O)sc12 | 1.55 | > 8 | 71 min | 7.56
7 | O=S(=O)(CCCOCCCCc1ccccc1)CCNCCc1ccc(O)c2nc(O)sc12 | 3.62 | < 8 | > 180 min | 7.76
8 | Oc1nc2c(O)ccc(CCNCCCCCCOCCc3ccccn3)c2s1 | – | > 8 | 109 min | 8.12
9 | O=S(=O)(Nc1ccc(CCOCCCSCCNCCc2ccc(O)c3nc(O)sc23)cc1)c1ccccc1 | 3.52 | > 8 | > 180 min | 7.57
10 | O=S(=O)(CCCNCCc1ccc(O)c2nc(O)sc12)NCCOCCc1cccc(C(F)(F)F)c1 | 2.62 | > 8 | > 180 min | –
11 | O=S(=O)(CCCNCCc1ccc(O)c2nc(O)sc12)NCCOCc1ccccc1 | 1.11 | > 8 | 72 min | 7.4
12 | O=C(NCCCCCCNCCc1ccc(O)c2nc(O)sc12)Nc1ccccc1 | 1.26 | > 8 | 60 min | 7.01
13 | CN(CCc1ccc(O)c2[nH]c(=O)sc12)CCN(C)C(=O)CCOCCc1ccccc1 | – | > 8 | – | –
14 | Oc1nc2c(O)ccc(CCNCCCCCOCCc3ccccc3)c2s1 | – | > 8 | > 180 min | 7.8
15 | O=S(=O)(CCNCCc1ccc(O)c2nc(O)sc12)NCCOCCc1ccccc1 | 2.38 | > 8 | 79 min | 6.48
16 | O=S(=O)(CCCOCCNc1ccccc1)CCNCCc1ccc(O)c2nc(O)sc12 | – | < 8 | 40 min | –
17 | Oc1nc2c(O)ccc(CCNCCSCCCOCCCc3ccccc3)c2s1 | 3.61 | > 8 | > 180 min | 7.27
18 | Cc1ccc(CCCOCCS(=O)(=O)CCCNCCc2ccc(O)c3nc(O)sc23)s1 | 2.41 | > 8 | > 180 min | –
19 | CC(CCCCCOCCc1ccccc1)NCCc1ccc(O)c2nc(O)sc12 (stereo not drawn) | – | > 8 | > 180 min | 8.08
20 | O=S(=O)(CCCNCCc1ccc(O)c2nc(O)sc12)NCCOCCSc1ccccc1 | 1.84 | > 8 | 180 min | –
21 | O=S(=O)(CCCOCCc1ccccc1)NCCNCCc1ccc(O)c2nc(O)sc12 | 1.83 | > 8 | 180 min | –
22 | O=S(=O)(CCCOCCc1ccc(Br)cc1)CCNCCc1ccc(O)c2nc(O)sc12 | 3.36 | > 8 | > 180 min | 7.4
23 | C[C@@H](COCCCS(=O)(=O)CCNCCc1ccc(O)c2nc(O)sc12)c1ccccc1 | 2.32 | < 8 | 60 min | –

Row | Structure (SMILES) | logD [1] | pKa [2] | Beta2 duration [3] | p[A]50 [4]
24 | NC(=O)Nc1ccc(CCOCCCCCCNCCc2ccc(O)c3nc(O)sc23)cc1 | – | > 8 | 140 min | 9.2
25 | Oc1nc2c(O)ccc(CCNCCCSCCOCCOc3ccccc3)c2s1 | 2.11 | > 8 | > 180 min | 7.06
26 | O=S(=O)(CCCOCCCc1ccccc1)CCNCCc1ccc(O)c2nc(O)sc12 | 3.13 | < 8 | 157 min | 7.35
27 | O=S(=O)(CCCOCCc1ccccn1)CCNCCc1ccc(O)c2nc(O)sc12 | 0.95 | < 8 | 24 min | 7.49
28 | CC(C)(CNCCc1ccc(O)c2nc(O)sc12)CSCCOCCc1ccccc1N | 3.44 | > 8 | > 180 min | 7.13
29 | CC(C)(CCCCOCCc1ccc([N+](=O)[O-])cc1)CNCCc1ccc(O)c2nc(O)sc12 | – | > 8 | > 180 min | 6.35
30 | Oc1nc2c(O)ccc(CCNCCCSCCOCCc3cccc4ccccc34)c2s1 | – | > 8 | > 180 min | 5.8
31 | O=S(=O)(CCCNCCc1ccc(O)c2nc(O)sc12)NCCOCCc1ccc(F)cc1 | 1.57 | > 8 | 150 min | –
32 | O=S(=O)(CCCNCCc1ccc(O)c2nc(O)sc12)CCNCCOc1ccccc1 | 0.9 | > 8 | 28 min | 6.73
33 | O=S(=O)(CCCNCCc1ccc(O)c2nc(O)sc12)CCNCCc1ccccc1 | – | > 8 | 18 min | 7.88
34 | O=S(=O)(CCCOCCc1ccc(F)cc1)CCNCCc1ccc(O)c2nc(O)sc12 | – | < 8 | 67 min | 7.92
35 | CN(CCNCCc1ccc(O)c2nc(O)sc12)C(=O)CCOCCc1ccccc1 | – | – | 116 min | 8.29
36 | O=S(=O)(CCCOCCc1nccc2ccccc12)CCNCCc1ccc(O)c2nc(O)sc12 | 2.35 | < 8 | 50 min | –
37 | O=S(=O)(CCCNCCc1ccc(O)c2nc(O)sc12)NCCOCCc1cccc(Cl)c1 | 1.92 | > 8 | 180 min | –
38 | O=S(=O)(CCCNCCc1ccc(O)c2nc(O)sc12)CCOCc1ccccc1 | 1.15 | > 8 | 60 min | –
39 | Cc1ccc(CCOCCNS(=O)(=O)CCCNCCc2ccc(O)c3nc(O)sc23)cc1 | 2.07 | > 8 | > 180 min | –
40 | O=S(=O)(CCOCc1cccc2ccccc12)NCCCNCCc1ccc(O)c2nc(O)sc12 | 1.69 | > 8 | 180 min | –
41 | CC(C)(CCCCOCCc1ccccc1N)CNCCc1ccc(O)c2nc(O)sc12 | – | > 8 | > 180 min | 7.58
42 | CC(C)(CCCCOCCc1ccc(O)cc1)CNCCc1ccc(O)c2nc(O)sc12 | – | > 8 | > 180 min | 9.03
43 | Oc1nc2c(O)ccc(CCNCCCSCCCOCCc3ccccc3)c2s1 | – | > 8 | > 180 min | 7.32
44 | CCCN(CCCOCCOCCc1ccccc1)CCc1ccc(O)c2nc(O)sc12 | – | > 8 | > 180 min | –
45 | O=S(=O)(CCCOCCc1cc2ccccc2o1)CCNCCc1ccc(O)c2nc(O)sc12 | 2.86 | < 8 | 160 min | –
46 | O=S(=O)(CCCOCCSc1ccccc1)CCNCCc1ccc(O)c2nc(O)sc12 | 2.68 | < 8 | 120 min | –

Row | Structure (SMILES) | logD [1] | pKa [2] | Beta2 duration [3] | p[A]50 [4]
47 | CC(C)(CCCCOCCc1cccc(N)c1)CNCCc1ccc(O)c2nc(O)sc12 | – | > 8 | > 180 min | 8.39
48 | COc1ccc(CCOCCCS(=O)(=O)CCNCCc2ccc(O)c3nc(O)sc23)cc1 | – | < 8 | 60 min | –
49 | Cc1ccccc1CCOCCCS(=O)(=O)CCNCCc1ccc(O)c2nc(O)sc12 | – | < 8 | 160 min | –
50 | N#Cc1ccc(CCOCCCS(=O)(=O)CCNCCc2ccc(O)c3nc(O)sc23)cc1 | 2 | < 8 | 40 min | –
51 | Cc1cc(C)cc(CCOCNS(=O)(=O)CCCNCCc2ccc(O)c3nc(O)sc23)c1 | – | > 8 | > 180 min | –
52 | CCN(CCCOCCOCCc1ccccc1)CCc1ccc(O)c2nc(O)sc12 | – | > 8 | > 180 min | –
53 | O=S(=O)(CCOCCCc1ccccc1)NCCNCCc1ccc(O)c2nc(O)sc12 | 2.22 | > 8 | > 180 min | –
54 | CC(C)(CCCCOCCc1ccc(N)cc1)CNCCc1ccc(O)c2nc(O)sc12 | – | > 8 | > 180 min | 8.86
55 | CS(=O)(=O)Nc1ccc(CCOCCCS(=O)(=O)CCNCCc2ccc(O)c3nc(O)sc23)cc1 | 1.34 | < 8 | 40 min | –
56 | CN(CCc1ccc(O)c2nc(O)sc12)CCN(C)C(=O)CCOCCc1ccccc1 | – | – | > 180 min | –
57 | C[C@@H](Cc1ccccc1)OCCCS(=O)(=O)CCNCCc1ccc(O)c2nc(O)sc12 | 1.81 | > 8 | 180 min | –
58 | Cc1cc(C)cc(CCOCCS(=O)(=O)NCCNCCc2ccc(O)c3nc(O)sc23)c1 | 2.59 | > 8 | > 180 min | –
59 | Oc1ccc(CCOCCCCCCNCCc2ccc(O)c3nc(O)sc23)cc1 | – | > 8 | > 180 min | 8.81
60 | CN(CCCNCCc1ccc(O)c2nc(O)sc12)S(=O)(=O)CCOCCc1ccccc1 | 1.24 | > 8 | 60 min | –
61 | Oc1nc2c(O)ccc(CCNCCCCCCOCCc3nccs3)c2s1 | – | > 8 | > 180 min | 7.78
62 | CC(C)(CCCCCOCCc1ccccc1)NCCc1ccc(O)c2nc(O)sc12 | – | > 8 | > 180 min | 8.42
63 | Oc1nc2c(O)ccc(CCNCCCCCOCCCc3ccccc3)c2s1 | – | > 8 | > 180 min | 7
64 | CSc1cccc(CCOCCS(=O)(=O)CCCNCCc2ccc(O)c3nc(O)sc23)c1 | 1.63 | > 8 | 150 min | –
65 | Nc1ccc(CCOCCCCCCNCCc2ccc(O)c3nc(O)sc23)cc1 | – | > 8 | > 180 min | 9.4
66 | CN(CCNCCc1ccc(O)c2[nH]c(=O)sc12)C(=O)CCOCCc1ccccc1 | 1.52 | > 8 | – | –
67 | Cc1ncsc1CCOCCCS(=O)(=O)CCNCCc1ccc(O)c2nc(O)sc12 | 1.44 | < 8 | 40 min | –

From ChEMBL document CHEMBL1145849, “QSAR and the rational design of long-acting dual D2-receptor/beta 2-adrenoceptor agonists” (J Med Chem, 2003)
